The nature of data set [1]: Solubility in 0.1 N HCl, PBS buffer, FaSSIF and FeSSIF. The following applies: thermodynamic from solid. It counts as physicochemical. The essentials: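 Excess compound was shaken for 10 min at ambient temperature in 0.1 N HCl (pH 1), PBS (pH 7.4), FaSSIF (pH 6.5) or FeSSIF (pH 5.0). After centrifugation, the dissolved concentration was measured by reversed-phase HPLC with UV detection at 220 nm.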

Data set [2] is described as follows: Solubility in Labrasol and TPGS/PG formulations. It counts as physicochemical. The method, then: Selected lipophilic carbonate compounds of formula I with promising Caco-2 permeabilities are formulated with different lipids/lipophilic excipients and/or micelles forming compounds in order to increase their solubilities. The following formulations are prepared by mixing the ingredients mentioned below: • i) Formulations comprising solubilizers in the form of lipides/lipophilic excipients: • ia) Formulation comprising Labrasol® and the selected compounds of Formula I • Labrasol®: • Caprylocaproyl macrogol-8-glyceride (CAS No. 85536-07-8 and 84963-88-2). This is a mixture of mono-, di- and triesters of glycerol and of PEG 400 with medium-chain fatty acids (C8-C10) which is marketed, for example, by Gattefossé under the mark Labrasol®; Labrasol® has an HLB value (hydrophil-lipophil-balance, Griffin, W. C.: Classification of surface active agents by HLB, J. Soc. Cosmet. 1, 1949) of 14 and has the following composition by weight:
• ib) Formulation comprising NanoSolve® 5401 (Lipoid GmbH, Germany) and the selected compounds of formula I • ic) Formulation comprising TPGS/PG in a weight ratio of 25% by weight of TPGS to 75% by weight of PG and the selected compounds of formula I. • PG: propylene glycol • TPGS: Vitamin E TPGS NF (d-α-tocopheryl polyethylene glycol 1000 succinate) which is marketed, for example, by Eastman Chemical Co • ii) Formulation comprising a micelles forming agent: • iia) Aqueous formulation comprising 30% by weight of Cremophor® RH 40 (relating to the weight of the aqueous phase) in water and the selected compounds of formula I • Cremophor® RH 40: • Generic names: • Polyoxyl 40 Hydrogenated Castor Oil (USP/NF). • Macrogol-Glycerolhydroxystearat (DAB). • Polyoxyethylenglyceroltrihydroxystearat (DAC). • Cremophor RH 40 is a non-ionic solubilizer and emulsifying agent obtained by reacting 45 moles of ethylene oxide with 1 mole of hydrogenated castor oil. The main constituent of Cremophor RH 40 is glycerol polyethylene glycol oxystearate, which, together with fatty acid glycerol polyglycol esters, forms the hydrophobic part of the product. The hydrophilic part consists of polyethylene glycols and glycerol ethoxylate. Cremophor RH 40 is a white to yellowish thin paste at 20° C. The HLB value lies between 14 and 16. Cremophor RH 40 is marketed by BASF AG.
The solubility of selected compounds of formula I in these formulations is measured and compared to the solubility of the compounds in 0.1N HCl (pH 1.0), PBS buffer (pH 7.4), and two simulated gastric fluids (i.e., FaSSIF (pH 6.5) simulating fasting sate and FeSSIF (pH 5.0) simulating fed state) (see above for details).

The nature of data set [3]: Pharmacokinetic profile of compound 15 in Labrasol, TPGS/PG or phosphate buffer in rats. It counts as in vivo, Male Sprague-Dawley rats. As to conditions: oral 10 mg/kg entacapone equivalents, FIG. 1. The method, then:
The pharmacokinetics of compound 15 in rats following oral administration is tested as described in Table 15 below.
The results are summarized in FIG. 1 (The symbols in FIG. 1 have the following meanings: c (ng/mL) concentration in ng/mL, t (min) time in minutes). […] Entacapone concentration is shown in ng/mL, and time is shown in minutes.

Data set [4] can be described thus: Permeability in Caco-2 cells, apical to basolateral. The class given is in vitro ADME. Details: dose or concentration left out as unconfirmed. As to conditions: human; 21d Caco-2 monolayer, apical pH 6.5 to basolateral pH 7.4, 60 minutes. Summed up: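 21-day Caco-2 monolayers dosed apically at 20 mM nominal test item concentration, apical pH 6.5, basolateral pH 7.4. Basolateral receiver sampled after 60 min and quantified by HPLC or LC-MS/MS; ³H-propranolol and ³H-mannitol controls sampled at 120 min and measured by scintillation.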

The mark [5] stands for this setting: FaSSIF, pH 6.5, fassif, Table 11, read-out: Solubility FaSSIF pH 6.5.
[6] abbreviates: FaSSIF, pH 6.5, fassif, fasting state fluid, ambient temperature, read-out: Solubility FaSSIF Ph 6.5.
[7] abbreviates: FeSSIF, pH 5, fessif, Table 11, read-out: Solubility FeSSIF pH 5.0.
[8] abbreviates: FeSSIF, pH 5, fessif, fed state fluid, ambient temperature, read-out: Solubility FeSSIF Ph 5.0.
[9] abbreviates: PBS buffer, pH 7.4, aqueous buffer, Table 11, read-out: Solubility PBS pH 7.4.
Setting [10] is: PBS buffer, pH 7.4, aqueous buffer, ambient temperature, read-out: Solubility PBS Ph 7.4.
Setting [11] is: Labrasol, oil or lipid, read-out: Solubility Labrasol ®.
[12] abbreviates: organic solvent or mixture, 25% by weight TPGS, 75% by weight PG, read-out: Solubility TPGS/PG.

The Papp A→B is how fast a substance crosses the layer from the apical side.

Molecules are shown by their SMILES. ≈ marks a conversion by molar mass, not a printed value. Read-outs that look alike come from different tables or passages of the source. A value given as a limit tells only on which side of the number the result lay.

Take `CCCCC(CC)COC(=O)Oc1cc(/C=C(\C#N)C(=O)N(CC)CC)cc([N+](=O)[O-])c1O` (centres unmarked) [Compound 15, Carbonic acid 5-((E)-2-cyano-2-diethylcarbamoyl-vinyl)-2-hydroxy-3-nitro-phenyl ester 2-ethyl-hexyl ester]: the solubility at 10 min in data set [1] (setting [5]) was 180 µg/mL (≈ 390 µM); in data set [1] (setting [6]), 180 µg/mL (≈ 390 µM); in data set [1] (setting [7]) it was 190 µg/mL (≈ 412 µM); in data set [1] (setting [8]) it was 190 µg/mL (≈ 412 µM); in data set [1] (setting [9]) it was 150 µg/mL (≈ 325 µM); in data set [1] (setting [10]), 150 µg/mL (≈ 325 µM). Moreover, the solubility in data set [2] (setting [11]) came out at 50000 µg/mL (≈ 108000 µM); in data set [2] (setting [12]), 2400 µg/mL (≈ 5200 µM). The “plasma level of entacapone formed, compared with phosphate buffer formulation” value in data set [3] (Labrasol formulation) and in data set [3] (TPGS/PG formulation) was “more constant” each time.

For the molecule `CCCCCCCCOC(=O)Oc1cc(/C=C(\C#N)C(=O)N(CC)CC)cc([N+](=O)[O-])c1O` [Compound 35, Carbonic acid 5-((E)-2-cyano-2-diethylcarbamoyl-vinyl)-2-hydroxy-3-nitro-phenyl ester octyl ester], the solubility at 10 min in data set [1] (setting [5]) was 150 µg/mL (≈ 325 µM); in data set [1] (setting [6]), 150 µg/mL (≈ 325 µM); in data set [1] (setting [7]), 150 µg/mL (≈ 325 µM); in data set [1] (setting [8]) it was 150 µg/mL (≈ 325 µM); in data set [1] (setting [9]) it was 130 µg/mL (≈ 282 µM); in data set [1] (setting [10]), 130 µg/mL (≈ 282 µM). This molecule displayed a Papp A→B at 60 min in data set [4] greater than 42 ×10⁻⁶ cm/s. Besides, the solubility in data set [2] (setting [11]) was greater than 36000 µg/mL; in data set [2] (setting [12]), 2300 µg/mL (≈ 4980 µM).

On to `CCN(CC)C(=O)/C(C#N)=C/c1cc(OC(=O)OCC2CCCCC2)c(O)c([N+](=O)[O-])c1` [Compound 57, Carbonic acid 5-((E)-2-cyano-2-diethylcarbamoyl-vinyl)-2-hydroxy-3-nitro-phenyl ester cyclohexylmethyl ester], for which the solubility at 10 min in data set [1] (setting [5]) was 140 µg/mL (≈ 314 µM); in data set [1] (setting [6]) it was 140 µg/mL (≈ 314 µM); in data set [1] (setting [7]), 30 µg/mL (≈ 67.3 µM); in data set [1] (setting [8]), 30 µg/mL (≈ 67.3 µM); in data set [1] (setting [9]), 260 µg/mL (≈ 584 µM); in data set [1] (setting [10]) it was 260 µg/mL (≈ 584 µM). Moreover, in data set [4], the Papp A→B at 60 min came to 55 ×10⁻⁶ cm/s. The solubility turned out to be 22000 µg/mL (≈ 49400 µM) in data set [2] (setting [11]) and 2500 µg/mL (≈ 5610 µM) in data set [2] (setting [12]).

On to `CCCC(C)OC(=O)Oc1cc(/C=C(\C#N)C(=O)N(CC)CC)cc([N+](=O)[O-])c1O` (centres unmarked) [Compound 63, Carbonic acid 5-((E)-2-cyano-2-diethylcarbamoyl-vinyl)-2-hydroxy-3-nitro-phenyl ester 1-methyl-butyl ester], for which the solubility at 10 min was 20 µg/mL (≈ 47.7 µM) in data set [1] (0.1 N HCl, pH 1, simulated gastric fluid, Table 11, maximum solubility, read-out: Solubility 0.1N HCl pH 1.0); 20 µg/mL (≈ 47.7 µM) in data set [1] (0.1 N HCl, pH 1, simulated gastric fluid, ambient temperature, shaken 10 min, read-out: Solubility 0.1N HCl Ph 1.0); 750 µg/mL (≈ 1790 µM) in data set [1] (setting [5]); 750 µg/mL (≈ 1790 µM) in data set [1] (setting [6]); 170 µg/mL (≈ 405 µM) in data set [1] (setting [7]); 170 µg/mL (≈ 405 µM) in data set [1] (setting [8]). Further, the solubility at 10 min in data set [1] (setting [9]) and in data set [1] (setting [10]) was 1230 µg/mL (≈ 2930 µM) each time. For the same molecule, the solubility in data set [2] (setting [11]) was determined as 10000 µg/mL (≈ 23800 µM); in data set [2] (setting [12]), 1800 µg/mL (≈ 4290 µM).

Values taken from patent US20080103191A1, “ENTACAPONE-DERIVATIVES” (priority 2006, published 2008).
